Read-outs that look alike come from different tables or passages of the source.
Assays:
[1] = biological target: T1, EGFR with insertion of SVD between D770 and N771 (EGFR ins SVD) (Homo sapiens, UniProt P00533, DUP768-770); test: Exon20-Mutant-EGFR(D770_N771insSVD) kinase assay (TR-FRET); type: biochemical; conditions: 2 mM ATP, several values per example where printed
T1 construct: made in house; host or cells: Sf9 insect cells (baculovirus)

[2] = biological target: T2, Bub1 (Homo sapiens, UniProt O43683); test: Bub1 TR-FRET high ATP kinase assay; type: biochemical; conditions: 2 mM ATP
T2 construct: catalytic domain of human Bub1 (amino acids 704-1085); His6 (N); made in house; host or cells: Hi5 insect cells
T2 sequence (O43683 704-1085): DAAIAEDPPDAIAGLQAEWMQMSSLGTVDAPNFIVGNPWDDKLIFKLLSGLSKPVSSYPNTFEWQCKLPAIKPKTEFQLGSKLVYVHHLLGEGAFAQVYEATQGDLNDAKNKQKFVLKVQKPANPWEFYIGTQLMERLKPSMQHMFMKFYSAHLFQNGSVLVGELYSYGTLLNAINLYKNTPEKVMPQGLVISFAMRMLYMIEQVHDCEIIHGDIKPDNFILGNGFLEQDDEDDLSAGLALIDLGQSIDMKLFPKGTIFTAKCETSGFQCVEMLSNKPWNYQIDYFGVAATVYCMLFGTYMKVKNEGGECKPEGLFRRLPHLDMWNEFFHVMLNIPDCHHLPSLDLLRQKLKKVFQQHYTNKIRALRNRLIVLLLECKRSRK
Description: Bub1 High ATP Kinase Assay
Bub1-inhibitory activity of compounds of the present invention at a high ATP concentration was quantified employing the Bub1 TR-FRET high ATP kinase assay as described in the following paragraphs.
N-terminally His6-tagged recombinant catalytic domain of human Bub1 (amino acids 704-1085), expressed in insect cells (Hi5) and purified by Ni-NTA affinity chromatography and subsequent size exclusion chromatography, was used as enzyme. As substrate for the kinase reaction the biotinylated peptide biotin-Ahx-[…]—SEQ ID 7 (C-terminus in amid form) was used which can be purchased e.g. form the company Biosyntan (Berlin, Germany).

[3] = biological target: Ba/F3-EGFR-insSVD cells (Homo sapiens, UniProt P00533, DUP768-770, cells depend on it); test: Ba/F3 cell survival assay (Cell Titer-Glo), EGFR-insSVD; type: cell-based; conditions: without IL-3, with 10 ng/mL EGF, 48 h; read-out: BA/F3 (insSVD) IC50
Sequence of Ba/F3-EGFR-insSVD cells (P00533 with tags, fused parts or gaps DUP768-770): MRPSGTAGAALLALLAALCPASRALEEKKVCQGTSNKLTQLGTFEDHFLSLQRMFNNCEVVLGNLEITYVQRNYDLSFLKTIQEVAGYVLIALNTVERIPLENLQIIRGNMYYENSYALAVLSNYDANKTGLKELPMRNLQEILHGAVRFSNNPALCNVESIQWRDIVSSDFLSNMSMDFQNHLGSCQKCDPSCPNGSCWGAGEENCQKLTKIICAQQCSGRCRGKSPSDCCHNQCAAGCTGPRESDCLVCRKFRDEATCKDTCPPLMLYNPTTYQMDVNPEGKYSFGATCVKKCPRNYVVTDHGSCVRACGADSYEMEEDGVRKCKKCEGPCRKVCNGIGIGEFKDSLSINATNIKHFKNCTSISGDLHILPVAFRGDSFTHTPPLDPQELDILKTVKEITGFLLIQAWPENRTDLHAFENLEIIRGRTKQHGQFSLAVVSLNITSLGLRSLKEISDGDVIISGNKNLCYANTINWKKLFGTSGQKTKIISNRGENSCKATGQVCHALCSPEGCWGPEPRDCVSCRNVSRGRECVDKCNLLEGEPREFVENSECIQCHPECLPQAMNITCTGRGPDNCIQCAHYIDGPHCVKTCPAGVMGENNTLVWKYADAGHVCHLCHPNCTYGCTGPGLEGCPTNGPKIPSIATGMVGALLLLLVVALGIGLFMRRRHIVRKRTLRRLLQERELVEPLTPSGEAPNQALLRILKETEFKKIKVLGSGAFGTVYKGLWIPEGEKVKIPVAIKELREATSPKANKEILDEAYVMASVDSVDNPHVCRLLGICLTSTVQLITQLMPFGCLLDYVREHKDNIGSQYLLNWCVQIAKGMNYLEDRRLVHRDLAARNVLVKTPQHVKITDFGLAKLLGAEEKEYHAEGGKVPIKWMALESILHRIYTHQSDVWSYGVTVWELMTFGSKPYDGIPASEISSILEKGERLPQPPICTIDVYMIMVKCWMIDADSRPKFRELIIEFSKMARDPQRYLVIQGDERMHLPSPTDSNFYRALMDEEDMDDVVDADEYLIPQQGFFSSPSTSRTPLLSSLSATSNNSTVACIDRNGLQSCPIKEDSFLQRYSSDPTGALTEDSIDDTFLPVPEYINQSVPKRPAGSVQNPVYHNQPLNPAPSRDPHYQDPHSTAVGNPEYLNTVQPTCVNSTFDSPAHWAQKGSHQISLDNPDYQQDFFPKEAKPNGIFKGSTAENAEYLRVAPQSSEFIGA
Procedure: (§1) 293T cells from ATCC were transfected with pBABEpuro expression constructs for WT EGFR or EGFR-insSVD and pCL-Eco packaging vector using Fugene-6 transfection reagent from Promega. Plates were incubated at 37° C. for 48 h. Retrovirus was harvested by filtering the media supernatant through a 0.45 μm filter.
(§2) Ba/F3 cells purchased from DSMZ were grown in RPMI+10% FBS+10 ng/mL IL-3 and infected with filtered retroviral supernatant at a 1:2 dilution. Polybrene was added to a concentration of 8 μg/mL, plates were spun for 90 min, and incubated overnight at 37° C. 2 μg/mL puromycin was added to the infected cells 24 h after infection and cells were continually grown in the presence of puromycin and 10 ng/mL IL-3. Following stably expressing Ba/F3 cell lines were generated: Ba/F3-EGFR-WT, Ba/F3-EGFR-insSVD, (Ba/F3-vector-control).
(§3) For cell survival assays, Ba/F3 cells were grown to a density of 1-2 million cells per mL, spun down and resuspended in media without IL-3, and replated at a concentration 200,000-500,000 cells per mL. The cells ectopically expressing WT EGFR or EGFR-insSVD were plated with 10 ng/mL Millipore Culture grade EGF. The cells ectopically expressing pBABEpuro empty vector were plated with 10 ng/mL IL-3. 2 days later, cells were plated in 50 μL in a 384 well plate at a concentration of 4000 cells per well for cells assayed in the absence of IL-3 and 2000 cells per well for cells assayed in the presence of IL-3. 100 nL of compound was added to each well using a 100 nL pin head, and plates were incubated at 37° C. for 48 h.
(§4) Cell viability was measured by adding 20 μL of Cell Titer-Glo Luminescent Cell Viability Reagent diluted 1:3 in PBS. Plates were sealed with Perkin Elmer Top-Seal, inverted several times to mix, and immediately centrifuged at 1000 rpm for 2 min. Plates were incubated in low light conditions for 8-10 min and luminescence was measured.

[4] = biological target: Ba/F3-EGFR-WT cells (Homo sapiens, UniProt P00533); test: Ba/F3 cell survival assay (Cell Titer-Glo), WT EGFR; type: cell-based; conditions: without IL-3, with 10 ng/mL EGF, 48 h; read-out: BA/F3 (wild type) IC50
Sequence of Ba/F3-EGFR-WT cells (P00533 whole entry, change not shown): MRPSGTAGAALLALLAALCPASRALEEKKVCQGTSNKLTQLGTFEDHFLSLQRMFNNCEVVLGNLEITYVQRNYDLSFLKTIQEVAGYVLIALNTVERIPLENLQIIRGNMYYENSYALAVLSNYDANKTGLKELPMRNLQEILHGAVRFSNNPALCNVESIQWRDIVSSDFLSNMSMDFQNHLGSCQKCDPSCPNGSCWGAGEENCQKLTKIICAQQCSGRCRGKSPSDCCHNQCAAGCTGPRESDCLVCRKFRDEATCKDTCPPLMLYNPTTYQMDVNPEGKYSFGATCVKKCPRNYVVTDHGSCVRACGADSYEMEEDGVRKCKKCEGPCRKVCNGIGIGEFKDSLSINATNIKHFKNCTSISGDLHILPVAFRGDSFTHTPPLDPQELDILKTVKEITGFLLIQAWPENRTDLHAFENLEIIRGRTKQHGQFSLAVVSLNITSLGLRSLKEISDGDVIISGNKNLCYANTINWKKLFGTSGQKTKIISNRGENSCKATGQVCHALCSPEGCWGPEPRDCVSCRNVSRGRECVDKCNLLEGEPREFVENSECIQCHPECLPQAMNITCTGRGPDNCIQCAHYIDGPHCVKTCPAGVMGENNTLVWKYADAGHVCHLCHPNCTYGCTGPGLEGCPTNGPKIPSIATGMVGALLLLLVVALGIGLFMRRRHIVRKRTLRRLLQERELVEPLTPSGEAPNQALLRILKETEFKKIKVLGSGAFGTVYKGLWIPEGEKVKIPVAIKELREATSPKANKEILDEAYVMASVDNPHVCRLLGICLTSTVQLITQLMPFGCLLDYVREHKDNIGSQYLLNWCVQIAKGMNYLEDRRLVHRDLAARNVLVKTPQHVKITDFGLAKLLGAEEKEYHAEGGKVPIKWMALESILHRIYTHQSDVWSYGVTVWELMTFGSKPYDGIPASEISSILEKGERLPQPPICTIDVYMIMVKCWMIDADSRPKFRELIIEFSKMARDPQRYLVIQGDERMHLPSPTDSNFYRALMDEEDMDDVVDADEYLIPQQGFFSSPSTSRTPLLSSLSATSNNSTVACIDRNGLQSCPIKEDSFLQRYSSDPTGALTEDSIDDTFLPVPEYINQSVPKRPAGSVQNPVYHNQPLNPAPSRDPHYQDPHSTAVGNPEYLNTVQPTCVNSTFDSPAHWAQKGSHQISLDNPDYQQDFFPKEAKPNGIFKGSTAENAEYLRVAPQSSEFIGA
Procedure: as §1, §2, §3, §4

[5] = Bub1 high ATP (2 mM) IC50 [mol/l]
[6] = read-out: Bub1 high ATP (2 mM) IC50 [mol/l]

T1 sequence (P00533 with tags, fused parts or gaps DUP768-770): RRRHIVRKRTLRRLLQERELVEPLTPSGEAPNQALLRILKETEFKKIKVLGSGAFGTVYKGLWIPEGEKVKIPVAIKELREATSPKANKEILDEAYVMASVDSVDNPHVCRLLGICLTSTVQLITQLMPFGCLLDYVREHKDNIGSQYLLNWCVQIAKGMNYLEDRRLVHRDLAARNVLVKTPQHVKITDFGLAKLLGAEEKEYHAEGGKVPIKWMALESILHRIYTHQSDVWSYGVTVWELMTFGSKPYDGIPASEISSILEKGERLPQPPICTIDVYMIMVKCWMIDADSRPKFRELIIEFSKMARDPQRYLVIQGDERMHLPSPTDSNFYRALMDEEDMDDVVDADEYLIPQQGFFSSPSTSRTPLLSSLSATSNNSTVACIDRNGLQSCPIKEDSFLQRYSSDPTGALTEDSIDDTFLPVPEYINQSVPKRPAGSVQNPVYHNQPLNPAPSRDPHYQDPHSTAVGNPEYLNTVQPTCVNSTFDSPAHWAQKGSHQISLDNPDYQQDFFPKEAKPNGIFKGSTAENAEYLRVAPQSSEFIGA

| SMILES | mutEGFR (D770_N771insSVD) kinase assay IC50 [1] [nM] | IC50 [2, 5] [nM] | GI50 [3] [nM] | GI50 [4] [nM] | IC50 [2, 6] [nM] |
| --- | --- | --- | --- | --- | --- |
| COc1c(Cl)cccc1Nc1c(-c2ccncc2O[C@@H](C)C2COCCO2)[nH]c2c1C(=O)NCC2 (mixture of isomers) [Example 57, 3-(3-chloro-2-methoxyanilino)-2-{3-[(1S)-1-(1,4-dioxan-2-yl)ethoxy]pyridin-4-yl}-1,5,6,7-tetrahydro-4H-pyrrolo[3,2-c]pyridin-4-one] | 0.269 | 14000 | 28 | 539 | – |
| COc1c(Cl)cccc1Nc1c(-c2ccncc2OC[C@H]2COCCO2)[nH]c2c1C(=O)NCC2 (single isomer, unassigned) [Example 3] | 0.137 | 3330 | 22.8 | 755 | – |
| O=C1NCCc2[nH]c(-c3ccncc3OCC3COCCO3)c(Nc3cccc(Cl)c3Cl)c21 (single isomer, unassigned) [Example 9, 3-(2,3-Dichloroanilino)-2-{3-[(1,4-dioxan-2-yl)methoxy]pyridin-4-yl}-1,5,6,7-tetrahydro-4H-pyrrolo[3,2-c]pyridin-4-one] | 0.0891 | 4230 | 32.7 | 303 | – |
| COc1c(F)cccc1Nc1c(-c2ccncc2OCC2CN(C)CCO2)[nH]c2c1C(=O)NCC2 (single isomer, unassigned) [Example 13, 3-(3-fluoro-2-methoxyanilino)-2-{3-[(4-methylmorpholin-2-yl)methoxy]pyridin-4-yl}-1,5,6,7-tetrahydro-4H-pyrrolo[3,2-c]pyridin-4-one] | 0.139 | > 20000 | – | 1520 | – |
| COc1c(Cl)cccc1Nc1c(-c2ccncc2OCC2CN(C)CCO2)[nH]c2c1C(=O)NCC2 (single isomer, unassigned) [Example 16, 3-(3-chloro-2-methoxyanilino)-2-(3-{[4-methylmorpholin-2-yl]methoxy}pyridin-4-yl)-1,5,6,7-tetrahydro-4H-pyrrolo[3,2-c]pyridin-4-one] | 0.228 | > 20000 | 126 | 1050 | – |
| COc1c(Cl)cccc1Nc1c(-c2ccncc2OCC2CN(C)CCO2)[nH]c2c1C(=O)NCC2 (single isomer, unassigned) [Example 17, 3-(3-chloro-2-methoxyanilino)-2-(3-{[4-methylmorpholin-2-yl]methoxy}pyridin-4-yl)-1,5,6,7-tetrahydro-4H-pyrrolo[3,2-c]pyridin-4-one] | 0.156 | – | 9.53 | 231 | > 20000 |
| COc1c(Cl)cccc1Nc1c(-c2ccncc2OCCC2COCCO2)[nH]c2c1C(=O)NCC2 (single isomer, unassigned) [Example 25, 3-(3-chloro-2-methoxyanilino)-2-{3-[2-(4-dioxan-2-yl)ethoxy]pyridin-4-yl}-1,5,6,7-tetrahydro-4H-pyrrolo[3,2-c]pyridin-4-one] | 0.282 | > 20000 | 18.3 | 349 | – |
| COc1c(Cl)cccc1Nc1c(-c2ccncc2OCCC2COCCO2)[nH]c2c1C(=O)NCC2 (single isomer, unassigned) [Example 26, 3-(3-chloro-2-methoxyanilino)-2-{3-[2-(4-dioxan-2-yl)ethoxy]pyridin-4-yl}-1,5,6,7-tetrahydro-4H-pyrrolo[3,2-c]pyridin-4-one] | 0.213 | 1080 | 89.9 | 839 | – |
| COc1c(Cl)cccc1Nc1c(-c2ccncc2OCC2COC(C)(C)CO2)[nH]c2c1C(=O)NCC2 (single isomer, unassigned) [Example 31, 3-(3-chloro-2-methoxyanilino)-2-{3-[(5,5-dimethyl-1,4-dioxan-2-yl)methoxy]pyridin-4-yl}-1,5,6,7-tetrahydro-4H-pyrrolo[3,2-c]pyridin-4-one] | 0.133 | – | – | – | – |
| COc1c(F)cccc1Nc1c(-c2ccncc2OCC2COC(C)(C)CO2)[nH]c2c1C(=O)NCC2 (single isomer, unassigned) [Example 33, 2-(3-{[5,5-dimethyl-1,4-dioxan-2-yl]methoxy}pyridin-4-yl)-3-(3-fluoro-2-methoxyanilino)-1,5,6,7-tetrahydro-4H-pyrrolo[3,2-c]pyridin-4-one] | 0.213 | > 20000 | 102 | 557 | – |
| COc1c(F)cccc1Nc1c(-c2ccncc2OCC2COC(C)(C)CO2)[nH]c2c1C(=O)NCC2 (single isomer, unassigned) [Example 34, 2-(3-{[5,5-dimethyl-1,4-dioxan-2-yl]methoxy}pyridin-4-yl)-3-(3-fluoro-2-methoxyanilino)-1,5,6,7-tetrahydro-4H-pyrrolo[3,2-c]pyridin-4-one] | 0.193 | – | 12 | 204 | > 20000 |
| COc1c(F)cccc1Nc1c(-c2ccncc2OCCC2COCCO2)[nH]c2c1C(=O)NCC2 (single isomer, unassigned) [Example 36, 2-(3-{2-[1,4-dioxan-2-yl]ethoxy}pyridin-4-yl)-3-(3-fluoro-2-methoxyanilino)-1,5,6,7-tetrahydro-4H-pyrrolo[3,2-c]pyridin-4-one] | – | 2820 | 68.1 | 845 | – |
| Cc1c(Cl)cccc1Nc1c(-c2ccncc2OCC2COC(C)(C)CO2)[nH]c2c1C(=O)NCC2 (single isomer, unassigned) [Example 45, 3-(3-chloro-2-methyl-anilino)-2-[3-[(5,5-dimethyl-1,4-dioxan-2-yl)methoxy]-4-pyridyl]-1,5,6,7-tetrahydropyrrolo[3,2-c]pyridin-4-one] | 0.492 | > 5710 | – | 1640 | – |
| COc1c(Cl)cccc1Nc1c(-c2ccncc2O[C@@H](C)C2COCCO2)[nH]c2c1C(=O)NCC2 (single isomer, unassigned) [Example 58, 3-(3-chloro-2-methoxyanilino)-2-{3-[(1 S)-1-(1,4-dioxan-2-yl)ethoxy]pyridin-4-yl}-1,5,6,7-tetrahydro-4H-pyrrolo[3,2-c]pyridin-4-one] | – | 13900 | 29.8 | 519 | – |
| COc1c(Cl)cccc1Nc1c(-c2ccncc2O[C@H](C)C2COCCO2)[nH]c2c1C(=O)NCC2 (single isomer, unassigned) [Example 61] | 0.935 | – | 300 | 3770 | – |
| COc1c(Cl)cccc1Nc1c(-c2ccncc2OCC2COC(C)(C)CO2)[nH]c2c1C(=O)NCC2 (stereo not drawn) [Example 30, 3-(3-chloro-2-methoxyanilino)-2-{3-[(5,5-dimethyl-1,4-dioxan-2-yl)methoxy]pyridin-4-yl}-1,5,6,7-tetrahydro-4H-pyrrolo[3,2-c]pyridin-4-one] | – | > 20000 | 19.3 | 407 | – |
| Cc1c(Cl)cccc1Nc1c(-c2ccncc2OCC2COC(C)(C)CO2)[nH]c2c1C(=O)NCC2 (stereo not drawn) [Example 44, 3-(3-chloro-2-methyl-anilino)-2-[3-[(5,5-dimethyl-1,4-dioxan-2-yl)methoxy]-4-pyridyl]-1,5,6,7-tetrahydropyrrolo[3,2-c]pyridin-4-one] | 0.15 | – | 25.7 | – | – |
| Cc1c(F)cccc1Nc1c(-c2ccncc2OCC2COCCO2)[nH]c2c1C(=O)NCC2 (stereo not drawn) [Example 47, 2-[3-(1,4-dioxan-2-ylmethoxy)-4-pyridyl]-3-(3-fluoro-2-methyl-anilino)-1,5,6,7-tetrahydropyrrolo[3,2-c]pyridin-4-one] | – | 5010 | 41.6 | 715 | – |

Reference: patent publication US12679836B2, “4H-pyrrolo[3,2-c]pyridin-4-one compounds” (Bayer Aktiengesellschaft, priority 2019, dated 2026)
